From article PMC9995496, “A screen for MeCP2-TBL1 interaction inhibitors using a luminescence-based assay” (Scientific Reports, 2023)
Where a name gives a salt, the structure may show the parent alone.

The compounds below were run on PRKACA-PRKAR2A interaction (SmBiT-PRKACA / LgBiT-PRKAR2A), protein kinase A. Details: 0.5 h, 20 µM; inhibitor.
Design: NanoLuc complementation counter-screen in cell extract, PRKACA with PRKAR2A, loss of luminescence, detects NanoLuc interference

Row | SMILES | Inh (PKA)
1 | COc1cc2cc(c1Cl)N(C)C(=O)C[C@H](OC(=O)C(C)C)[C@]1(C)O[C@@H]1[C@H](C)[C@@H]1C[C@@](O)(NC(=O)O1)[C@H](OC)/C=C/C=C(\C)C2 [UM0141517:01, Ansamitocin P-3] | 6.121%
2 | CC[C@@H]1/C=C(\C)C[C@H](C)C[C@H](OC)[C@H]2O[C@@](O)(C(=O)C(=O)N3CCCC[C@H]3C(=O)O[C@H](/C(C)=C/[C@@H]3CC[C@@H](O)[C@H](OC)C3)[C@H](C)[C@@H](O)CC1=O)[C@H](C)C[C@@H]2OC [UM0141519:01, Ascomycin(FK 520)] | 13.3

Same assay, conditions: counter-screen for NanoLuc interference, 0.5 h, 20 µM, inhibitor, Inh (PKA)

Row | Inh (PKA) | SMILES
3 | 7.702% | CCCCCCOC(=O)NC(=N)c1ccc(NCc2nc3cc(C(=O)N(CCC(=O)OCC)c4ccccn4)ccc3n2C)cc1 [UM0141539:01, Dabigatran etexilate mesylate]
4 | 39.79% | CC(C)(C)c1nc(-c2cccc(NS(=O)(=O)c3c(F)cccc3F)c2F)c(-c2ccnc(N)n2)s1 [UM0141540:01, Dabrafenib Mesylate (GSK-2118436)]
5 | 1.786% | CC(=O)O[C@@]12CO[C@@H]1C[C@H](O)[C@@]1(C)C(=O)[C@H](O)C3=C(C)[C@@H](OC(=O)[C@H](O)[C@@H](NC(=O)OC(C)(C)C)c4ccccc4)C[C@@](O)([C@@H](OC(=O)c4ccccc4)[C@H]21)C3(C)C [UM0141543:01, Docetaxel Trihydrate]
6 | 0.988% | CN1CCc2nc(C(=O)N[C@@H]3C[C@@H](C(=O)N(C)C)CC[C@@H]3NC(=O)C(=O)Nc3ccc(Cl)cn3)sc2C1 [UM0141545:01, Edoxaban]
7 | 2.853% | CN1CCc2nc(C(=O)N[C@@H]3C[C@@H](C(=O)N(C)C)CC[C@@H]3NC(=O)C(=O)Nc3ccc(Cl)cn3)sc2C1 [UM0141546:01, Edoxaban tosylate monohydrate]

The next lines start with the compound.

Row | SMILES | Inh (PKA)
8 | C[C@@H](N)[C@H]1CC[C@H](C(=O)Nc2ccncc2)CC1 [UM0141498:01, Y-27632 dihydrochloride] | -3.616%
9 | C[C@@H](N)[C@H]1CC[C@H](C(=O)Nc2ccncc2)CC1 [UM0141498:02, Y-27632] | -5.28%
10 | N#CC[C@H](C1CCCC1)n1cc(-c2ncnc3[nH]ccc23)cn1 [UM0141500:01, Ruxolitinib (INCB018424)] | 28.73%
11 | CN(C)C/C=C/C(=O)Nc1cc2c(Nc3ccc(F)c(Cl)c3)ncnc2cc1O[C@H]1CCOC1 [UM0141512:01, Afatinib dimaleate] | 6.216%
12 | CN(C)C/C=C/C(=O)Nc1cc2c(Nc3ccc(F)c(Cl)c3)ncnc2cc1O[C@H]1CCOC1 [UM0141512:02, Afatinib (BIBW2992)] | 5.289%
13 | Cn1c(=O)cc(N2CCC[C@@H](N)C2)n(Cc2ccccc2C#N)c1=O [UM0141514:01, Alogliptin Benzoate] | 3.371%
14 | COc1ccc2c3c1O[C@H]1C[C@@H](O)C=C[C@@]31CCN(C)C2 [UM0141554:01, Galanthamine] | 0.2093%

Same assay, conditions: counter-screen for NanoLuc interference; 0.5 h, 20 µM; inhibitor

Row | Inh (PKA) | SMILES
15 | 70.09% | COc1cc(/C=C/C(=O)CC(=O)/C=C/c2ccc(O)c(OC)c2)ccc1O [UM0141535:01, Curcumin]
16 | 48.23% | CN1CCCN(C(=O)c2cccc(-c3ccc(/C=C4/C(=O)Nc5ccc(Cl)cc54)o3)c2)CC1 [UM0141536:01, CX-6258]
17 | 2.566% | CC(C)(C)NS(=O)(=O)c1cncc(-c2cc(F)c3nc(N)nn3c2)c1 [UM0141537:01, CZC24832]
18 | 17.68% | S=C(S)O[C@@H]1C[C@@H]2C[C@@H]1[C@H]1CCC[C@@H]21 [UM0141538:01, D609]
19 | 8.505% | CCN(CC)CCN(Cc1ccc(-c2ccc(C(F)(F)F)cc2)cc1)C(=O)Cn1c(SCc2ccc(F)cc2)nc(=O)c2c1CCC2 [UM0141541:01, Darapladib]
20 | 39.9% | NC(=O)c1ccccc1Nc1ccnc(Nc2cccc(O)c2)n1 [UM0141542:01, DB07268]
21 | 6.648% | CCCCc1oc2ccc(NS(C)(=O)=O)cc2c1C(=O)c1ccc(OCCCN(CCCC)CCCC)cc1 [UM0141544:01, Dronedarone]
22 | 22.37% | COc1cc2c(cc1OC)CN(CCc1ccc(NC(=O)c3cccc4c(=O)c5cccc(OC)c5[nH]c34)cc1)CC2 [UM0141547:01, Elacridar]
23 | 7.378% | CN1CCC(COc2cnc(-c3cccc(Cn4nc(-c5cccc(C#N)c5)ccc4=O)c3)nc2)CC1 [UM0141548:01, EMD-1214063]
24 | 19.67% | CCc1c(C(=O)NNC(=O)C(O)c2cc(F)cc(F)c2)ccc(O)c1C (centres unmarked) [UM0141549:01, EMD638683]
25 | 2.792% | Cc1ccc(-c2ncc(Cl)cc2-c2ccc(S(C)(=O)=O)cc2)cn1 [UM0141550:01, Etoricoxib]
26 | 77.24% | Cc1cc([N+](=O)[O-])ccc1NS(=O)(=O)c1cc(Cl)ccc1Cl [UM0141551:01, FH535]
27 | 9.856% | CC(C)n1c(/C=C/[C@H](O)C[C@H](O)CC(=O)O)c(-c2ccc(F)cc2)c2ccccc21 [UM0141552:01, Fluvastatin]

The remaining lines, values behind:

Row | SMILES | Inh (PKA)
28 | CC1(C)CCC(c2ccc(Cl)cc2)=C(CN2CCN(c3ccc(C(=O)NS(=O)(=O)c4ccc(N[C@H](CCN5CCOCC5)CSc5ccccc5)c(S(=O)(=O)C(F)(F)F)c4)cc3)CC2)C1 [UM0141497:01, ABT-263 (Navitoclax)] | -0.2397%
29 | Cc1cnc(-c2cnc(NCCNc3ccc(C#N)cn3)nc2-c2ccc(Cl)cc2Cl)[nH]1 [UM0141499:01, CHIR-99021 (CT99021)] | 50.27%
30 | CCN1CCN(c2ccc(Nc3cc(N(C)C(=O)Nc4c(Cl)c(OC)cc(OC)c4Cl)ncn3)cc2)CC1 [UM0141502:01, BGJ398] | -0.1399%
31 | Nc1cc(C(F)(F)F)c(-c2cc(N3CCOCC3)nc(N3CCOCC3)n2)cn1 [UM0141503:01, BKM120] | 7.459%
32 | CN[C@@H](C)C(=O)N[C@H]1CN(C(=O)CC(C)C)CC[C@H]2CC[C@@H](C(=O)NC(c3ccccc3)c3ccccc3)N2C1=O [UM0141504:01, AT-406 (SM-406)] | 0.8145%
33 | C[C@@H](Oc1cc(-c2cnn(C3CCNCC3)c2)cnc1N)c1c(Cl)ccc(F)c1Cl [UM0141505:01, (R)-Crizotinib] | 10.35%
34 | Nc1ncnc2c1c(I)cn2[C@@H]1O[C@H](CO)[C@@H](O)[C@H]1O [UM0141507:01, 5-Iodotubercidin] | 18.13%
35 | O=C(NC[C@@H]1CN(c2ccc(N3CCOCC3=O)cc2)C(=O)O1)c1ccc(Cl)s1 [UM0141508:01, 5-R-Rivaroxaban] | 3.342%
36 | Cc1n[nH]c2ccc(-c3cncc(OC[C@@H](N)Cc4c[nH]c5ccccc45)c3)cc12 [UM0141510:01, A-443654] | 34.74%
37 | Nc1nc(NC2CC2)c2ncn([C@H]3C=C[C@@H](CO)C3)c2n1 [UM0141511:01, Abacavir] | 2.063%
38 | O=C(Nc1cccc(C(F)(F)F)c1)Nc1cc(S(=O)(=O)NC2CC2)ccc1-c1ccsc1 [UM0141513:01, AGI-6780] | 24.76%
39 | N#Cc1ccc(Oc2ccc3c(c2)COB3O)cc1 [UM0141516:01, AN-2728] | 2.062%
40 | N#CC(c1ccnc(OCc2ccc(CN3CCOCC3)cc2)n1)c1nc2ccccc2s1 (centres unmarked) [UM0141518:01, AS 602801] | 8.348%
41 | COc1cc(N2CCC(N3CCN(C)CC3)CC2)ccc1Nc1ncnc(Nc2ccccc2S(=O)(=O)C(C)C)n1 [UM0141520:01, ASP3026] | 2.084%
42 | C=C[C@@H]1C[C@]1(NC(=O)[C@@H]1C[C@@H](Oc2ncc(OC)c3ccc(Cl)cc23)CN1C(=O)[C@@H](NC(=O)OC(C)(C)C)C(C)(C)C)C(=O)NS(=O)(=O)C1CC1 [UM0141521:01, Asunaprevir (BMS-650032)] | -7.752%
43 | C=CC(=O)Nc1cccc(Nc2nc(Nc3ccc(OCCOC)cc3)ncc2F)c1 [UM0141522:01, AVL-292] | 22.87%
44 | COc1cc([C@@H]2c3cc4c(cc3[C@H](O)[C@H]3COC(=O)[C@@H]23)OCO4)cc(OC)c1OC [UM0141523:01, AXL1717] | 8.722%
45 | C[C@@H]1COCCN1c1cc(C2(S(C)(=O)=O)CC2)nc(-c2cccc3[nH]ccc23)n1 [UM0141524:01, AZ20] | 9.96%
46 | CCN(CCCOc1ccc2c(Nc3cc(CC(=O)Nc4cccc(F)c4)[nH]n3)ncnc2c1)CCOP(=O)(O)O [UM0141525:01, AZD1152] | 8.114%
47 | COC(=O)[C@]12CCC(C)(C)C[C@H]1[C@H]1C(=O)C=C3[C@@]4(C)C=C(C#N)C(=O)C(C)(C)[C@@H]4CC[C@@]3(C)[C@]1(C)CC2 [UM0141526:01, Bardoxolone methyl] | 12.18%
48 | CNCc1ccc(C)c(NC(=O)c2ccc(Nc3nc(-c4ccccc4)c4ccccc4n3)cc2)c1 [UM0141527:01, BMS-833923] | 45.75%
49 | C=CC(=O)Nc1cc(-n2c(=O)ccc3cnc4ccc(-c5ccc(NS(C)(=O)=O)cc5)cc4c32)ccc1C [UM0141528:01, BMX-IN-1] | 6.521%
50 | CC(C)(C)NC(=O)N[C@H](C(=O)N1C[C@H]2[C@@H]([C@H]1C(=O)NC(CC1CCC1)C(=O)C(N)=O)C2(C)C)C(C)(C)C (some centres unmarked) [UM0141529:01, Boceprevir] | 1.202%
51 | Cc1c(NC(=O)c2ccc(C(C)(C)C)cc2)cccc1-c1cn(C)c(=O)c(Nc2ccc(C(=O)N3CCOCC3)cc2)n1 [UM0141530:01, CGI-1746] | 10.06%
52 | C[C@@H](O)[C@H](NC(=O)c1ccc(C#Cc2ccc(CN3CCOCC3)cc2)cc1)C(=O)NO [UM0141531:01, CHIR-090] | 2.568%
53 | C=CC(=O)Nc1cccc(Nc2nc(Nc3ccc(N4CCN(C(C)=O)CC4)cc3OC)ncc2C(F)(F)F)c1 [UM0141532:01, CO-1686 (AVL-301)] | 17.5%
54 | O=C(c1ccc(F)c(F)c1Nc1ccc(I)cc1F)N1CC(O)([C@@H]2CCCCN2)C1 [UM0141533:01, Cobimetinib] | 6.124%
55 | C=C1C(=O)O[C@@H]2/C=C(\C)CC/C=C(\C)CC[C@@H]12 [UM0141534:01, Costunolide] | 4.671%
56 | CC(C)=CCC[C@]1(C)C=Cc2c(O)c3c(c(CC=C(C)C)c2O1)O[C@]12C(=C[C@@H]4C[C@H]1C(C)(C)O[C@@]2(C/C=C(/C)C(=O)O)C4=O)C3=O [UM0141555:01, Gambogic Acid] | 4.588%
